Measured values from PMC4929558, “A novel AhR ligand, 2AI, protects the retina from environmental stress” (Scientific Reports, 2016).
pEC50: −log10 of the molar value.

What was measured:
[1] = target: T1, human AhR protein (humanized AhR liver cytosol) (Homo sapiens, UniProt P35869); test: photoaffinity ligand competition, hepatic cytosol; type: binding; details: competition with 2-azido-3-[125I]iodo-7,8-dibromodibenzo-p-dioxin (0.21 pmol, saturating), 150 μg liver protein, room temperature 20 min, then UV 402 nm
T1 construct: human AhR expressed in liver of humanized transgenic mice, B6.Cg-Ahr^tm3.1Bra Tg (Alb-cre, Ttr-AhR)1GHP; hepatic cytosol, not purified
T1 sequence (P35869 11-848): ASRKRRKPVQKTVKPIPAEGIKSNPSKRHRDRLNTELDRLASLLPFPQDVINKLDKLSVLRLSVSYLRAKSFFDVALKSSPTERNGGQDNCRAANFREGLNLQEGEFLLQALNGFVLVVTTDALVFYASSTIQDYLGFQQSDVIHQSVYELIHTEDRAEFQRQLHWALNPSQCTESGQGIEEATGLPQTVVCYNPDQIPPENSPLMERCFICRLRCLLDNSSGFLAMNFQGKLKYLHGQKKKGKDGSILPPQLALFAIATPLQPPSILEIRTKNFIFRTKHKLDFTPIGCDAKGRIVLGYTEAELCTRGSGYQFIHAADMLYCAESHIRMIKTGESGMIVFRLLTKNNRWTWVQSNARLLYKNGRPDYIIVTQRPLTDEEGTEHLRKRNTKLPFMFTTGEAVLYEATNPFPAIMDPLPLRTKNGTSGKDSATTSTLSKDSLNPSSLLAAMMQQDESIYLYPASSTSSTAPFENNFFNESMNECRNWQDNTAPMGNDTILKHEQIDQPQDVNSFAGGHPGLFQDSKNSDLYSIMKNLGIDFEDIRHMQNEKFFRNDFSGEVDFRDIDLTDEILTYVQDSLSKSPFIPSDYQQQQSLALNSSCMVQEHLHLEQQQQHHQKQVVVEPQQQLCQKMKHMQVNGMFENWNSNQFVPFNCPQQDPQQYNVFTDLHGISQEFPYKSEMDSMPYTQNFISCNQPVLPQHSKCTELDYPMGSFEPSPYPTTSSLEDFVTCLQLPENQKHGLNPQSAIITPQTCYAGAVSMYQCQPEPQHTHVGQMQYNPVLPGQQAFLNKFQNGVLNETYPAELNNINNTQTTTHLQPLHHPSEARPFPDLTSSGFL

[2] = target: T2, AhR (XRE-luciferase reporter assay) (Homo sapiens, UniProt P35869); test: XRE-luciferase reporter assay in cells; type: cell-based; details: agonist
T2 construct: with Aryl hydrocarbon receptor nuclear translocator
T2 sequence (P35869 11-848): T1 sequence (P35869 11-848)

[3] = target: T1, human AhR protein (humanized AhR liver cytosol); test: photoaffinity labelling, SDS-PAGE, gamma counting; type: binding; details: labelled compound; covalent after UV photolysis; 0.21 pmol per tube, 150 μg liver protein

SMILES	% photoaffinity label bound [1]	pEC50 [2]	photoaffinity labelling, SDS-PAGE, gamma counting [3]
Nc1ccccc1-c1cc2ccccc2[nH]1 [2AI]	2AI was able to out-compete the photoaffinity label bound to the human AhR protein	5.46	–
[N-]=[N+]=Nc1cc2c(cc1I)Oc1cc(Br)c(Br)cc1O2 [PAL, 2-azido-3-[125I]iodo-7,8-dibromodibenzo-p-dioxin]	–	–	Labeled AHR bands were excised and counted using a γ counter
